From US20260345517A1, “DOSAGE REGIMENS FOR TREATING STARGARDT DISEASE” (Alkeus Pharmaceuticals, Inc., priority 2024, published 2026)

Test: TEASE-1: safety and adverse events
Assay type: in vivo, human
Experimental: The Tolerability and Effects of gildeuretinol acetate in Stargardt Disease (Clinical trial group 1 also known as TEASE-1) was a 24-month, multicenter, double-masked, placebo-controlled trial designed to evaluate the efficacy and safety of daily oral gildeuretinol acetate in slowing the growth of atrophic retinal lesions in Stargardt disease patients. The trial was conducted at multiple sites in the United States (NCT02402660).
Patients 12 years or older, clinically diagnosed with Stargardt disease, with at least one ABCA4 mutation, at least one eye presenting with well-demarcated areas of reduced fundus autofluorescence, and with any visual acuity, were eligible.
Patients were randomized to gildeuretinol acetate 14 mg capsules, gildeuretinol acetate 24 mg capsules, or placebo capsules, to be taken once daily for one year. After one year, 50% of randomly selected patients receiving placebo were crossed over in a 1:1 ratio to gildeuretinol acetate 14 mg capsules or gildeuretinol acetate 24 mg capsules for a second year.
Gildeuretinol acetate and placebo capsules were identical appearing capsules. Patients were advised to avoid vitamin A-containing supplements and liver-based products. Fruits and vegetables contain beta-carotene, not preformed vitamin A, and could be consumed without limitation. Trial visits occurred at 8 weeks and 6, 12, 18, and 24 months following screening and randomization.

## CC(=O)OC/C=C(C)/C=C/C=C(C)/C=C/C1=C(C)CCCC1(C)C [gildeuretinol acetate, C20-D3-retinol acetate]
24 mg, N = 15
  Inflammation: 0 patients (%)
  Influenza: 1 (6.7) patients (%)
  Insomnia: 0 patients (%)
  Intracranial pressure increased: 1 (6.7) patients (%)
  Irritability: 0 patients (%)
  Jaw operation: 1 (6.7) patients (%)
  Knee arthroplasty: 0 patients (%)
  Laryngitis: 0 patients (%)
  Lip swelling: 0 patients (%)
  Low density lipoprotein increased: 0 patients (%)
  Muscle spasms: 0 patients (%)
  Muscle strain: 0 patients (%)
  Musculoskeletal pain: 1 (6.7) patients (%)
  Nasopharyngitis: 3 (20.0) patients (%)
  Nausea: 1 (6.7) patients (%)
  Neck pain: 0 patients (%)
  Nephrolithiasis: 0 patients (%)
  Nerve compression: 0 patients (%)
  Neuralgia: 0 patients (%)
  Obsessive-compulsive disorder: 0 patients (%)
  Oropharyngeal pain: 3 (20.0) patients (%)
  Osteoporosis: 1 (6.7) patients (%)
  Pain: 0 patients (%)
  Pain in extremity: 2 (13.3) patients (%)
  Pain in jaw: 0 patients (%)
  Peripheral coldness: 0 patients (%)
  Pharyngitis streptococcal: 0 patients (%)
  Photophobia: 0 patients (%)
  Photopsia: 0 patients (%)
  Plantar fasciitis: 0 patients (%)
  Pleurisy: 0 patients (%)
  Pneumonia: 0 patients (%)
  Premenstrual syndrome: 1 (6.7) patients (%)
  Punctate keratitis: 0 patients (%)
  Pyrexia: 1 (6.7) patients (%)
  Radius fracture: 0 patients (%)
  Rash: 0 patients (%)
  Rotator cuff syndrome: 1 (6.7) patients (%)
  Sialoadenitis: 0 patients (%)
  Sinus congestion: 1 (6.7) patients (%)
  Sinusitis: 0 patients (%)
  Sjogren's syndrome: 0 patients (%)
  Skin infection: 0 patients (%)
  Subdural haematoma: 0 patients (%)
  Syncope: 1 (6.7) patients (%)
  Tendonitis: 0 patients (%)
  Thoracic outlet syndrome: 0 patients (%)
  Tongue dry: 0 patients (%)
  Tooth abscess: 1 (6.7) patients (%)
  Tooth extraction: 1 (6.7) patients (%)
  Toothache: 0 patients (%)
  Upper respiratory tract infection: 1 (6.7) patients (%)
  Vision blurred: 0 patients (%)
  Visual field defect: 0 patients (%)
  Visual impairment: 0 patients (%)
  Vitamin B12 deficiency: 0 patients (%)
  Vitamin D decreased: 1 (6.7) patients (%)
  Vitreous floaters: 0 patients (%)
  Vulvovaginal candidiasis: 1 (6.7) patients (%)
  Wrist fracture: 0 patients (%)
  Xanthelasma: 1 (6.7) patients (%)
24 mg, one patient
  elevated intracranial pressure: Elevated intracranial pressure was measured
24 mg, one patient, resolved upon temporary interruption and acetazolamide
  papilledema grade (modified Frisen scale) with elevated intracranial pressure: Grade 1
crossover, N = 10
  Abdominal discomfort: 1 (10.0) patients (%)
  Abdominal distension: 0 patients (%)
  Abdominal pain upper: 0 patients (%)
  Abnormal dreams: 0 patients (%)
  Adverse events, Overall: 8 (80) patients (%)
  Alanine aminotransferase increased: 1 (10.0) patients (%)
  Alopecia: 0 patients (%)
  Ankle fracture: 0 patients (%)
  Arthralgia: 1 (10.0) patients (%)
  Arthritis: 1 (10.0) patients (%)
  Aspartate aminotransferase increased: 1 (10.0) patients (%)
  Back injury: 0 patients (%)
  Back pain: 0 patients (%)
  Blepharospasm: 1 (10.0) patients (%)
  Blood cholesterol increased: 0 patients (%)
  Blood creatinine increased: 0 patients (%)
  Blood iron decreased: 0 patients (%)
  Blood pressure increased: 0 patients (%)
  Blood triglycerides increased: 0 patients (%)
  Bowel movement irregularity: 0 patients (%)
  Bronchitis: 0 patients (%)
  Cartilage injury: 0 patients (%)
  Conjunctival laceration: 0 patients (%)
  Conjunctivitis: 0 patients (%)
  Constipation: 0 patients (%)
  Cough: 0 patients (%)
  Death: 0 patients (%)
  Depression: 0 patients (%)
  Diarrhoea: 1 (10.0) patients (%)
  Diplopia: 0 patients (%)
  Dry eye: 0 patients (%)
  Dry mouth: 0 patients (%)
  Dry skin: 0 patients (%)
  Ear discomfort: 0 patients (%)
  Ear infection: 1 (10.0) patients (%)
  Ear pain: 0 patients (%)
  Eczema: 1 (10.0) patients (%)
  Electrocardiogram abnormal: 1 (10.0) patients (%)
  Erythema: 0 patients (%)
  Eye irritation: 0 patients (%)
  Eye pain: 0 patients (%)
  Eye pruritus: 0 patients (%)
  Face injury: 0 patients (%)
  Faeces soft: 0 patients (%)
  Fall: 0 patients (%)
  Gastroenteritis: 1 (10.0) patients (%)
  Gastroenteritis viral: 0 patients (%)
  Hair texture abnormal: 0 patients (%)
  Hand fracture: 0 patients (%)
  Headache: 0 patients (%)
  Herpes zoster: 0 patients (%)
  Hordeolum: 0 patients (%)
  Hypertension: 0 patients (%)
  Hypobarism: 0 patients (%)
  Hypothyroidism: 0 patients (%)
  Hysterectomy: 0 patients (%)
  Inflammation: 0 patients (%)
  Influenza: 0 patients (%)
  Insomnia: 0 patients (%)
  Intracranial pressure increased: 0 patients (%)
  Irritability: 0 patients (%)
  Jaw operation: 0 patients (%)
  Knee arthroplasty: 0 patients (%)
  Laryngitis: 0 patients (%)
  Lip swelling: 0 patients (%)
  Low density lipoprotein increased: 0 patients (%)
  Muscle spasms: 0 patients (%)
  Muscle strain: 0 patients (%)
  Musculoskeletal pain: 0 patients (%)
  Nasopharyngitis: 1 (10.0) patients (%)
  Nausea: 0 patients (%)
  Neck pain: 0 patients (%)
  Nephrolithiasis: 1 (10.0) patients (%)
  Nerve compression: 0 patients (%)
  Neuralgia: 0 patients (%)
  Obsessive-compulsive disorder: 0 patients (%)
  Oropharyngeal pain: 1 (10.0) patients (%)
  Osteoporosis: 0 patients (%)
  Pain: 0 patients (%)
  Pain in extremity: 0 patients (%)
  Pain in jaw: 0 patients (%)
  Peripheral coldness: 0 patients (%)
  Pharyngitis streptococcal: 0 patients (%)
  Photophobia: 0 patients (%)
  Photopsia: 0 patients (%)
  Plantar fasciitis: 0 patients (%)
  Pleurisy: 1 (10.0) patients (%)
  Pneumonia: 1 (10.0) patients (%)
  Premenstrual syndrome: 0 patients (%)
  Punctate keratitis: 0 patients (%)
  Pyrexia: 0 patients (%)
  Radius fracture: 0 patients (%)
  Rash: 1 (10.0) patients (%)
  Rotator cuff syndrome: 0 patients (%)
  Sialoadenitis: 0 patients (%)
  Sinus congestion: 0 patients (%)
  Sinusitis: 0 patients (%)
  Sjogren's syndrome: 0 patients (%)
  Skin infection: 0 patients (%)
  Subdural haematoma: 0 patients (%)
  Syncope: 0 patients (%)
  Tendonitis: 0 patients (%)
  Thoracic outlet syndrome: 0 patients (%)
  Tongue dry: 0 patients (%)
  Tooth abscess: 0 patients (%)
  Tooth extraction: 0 patients (%)
  Toothache: 0 patients (%)
  Upper respiratory tract infection: 2 (20.0) patients (%)
  Vision blurred: 1 (10.0) patients (%)
  Visual field defect: 1 (10.0) patients (%)
  Visual impairment: 0 patients (%)
  Vitamin B12 deficiency: 0 patients (%)
  Vitamin D decreased: 0 patients (%)
  Vitreous floaters: 1 (10.0) patients (%)
  Vulvovaginal candidiasis: 0 patients (%)
  Wrist fracture: 0 patients (%)
  Xanthelasma: 0 patients (%)
